Results published in patent EP1038880B1, “Androstanes and pregnanes for allosteric modulation of GABA receptor” (priority 1994, dated 1995).

What was measured:
[1] = biological target: GR complex; assay: [35S]TBPS binding assay (inhibition of [35S]TBPS binding, cerebral cortex P2 homogenate); design: species or system rat; conditions: for IC50: 2 nM [35S]TBPS, rat cerebral cortex P2 homogenate; for IMAX: maximum inhibition of [35S]TBPS binding
How it was run: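 Rat (male Sprague-Dawley) cortical P2 homogenate (0.5 mg protein) in 50 mM Na/K phosphate pH 7.4, 200 mM NaCl, incubated with 2 nM [35S]TBPS plus steroid test compounds (DMSO) in presence of GABA plus (+)bicuculline, 25°C, 90 min. Filtration, scintillation counting; nonspecific binding defined with […].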

[2] = system: metrazol induced convulsions; assay: animal or person; assay type: in vivo, mice; conditions: Mus musculus, read-out: % Protected; for responders at 10 mg/kg: 10 min, IP, 10 minutes prior to metrazol (85 mg/kg)
Description: Experiments were also performed to determine the physiological relevance of neuroactive steroid and GABA receptor interactions by assessing the ability of the compounds of and used in the invention to prevent metrazol induced convulsions in mice. Mice were injected with various doses of the test compounds of the invention, 10 minutes prior to the injection of metrazol. The time to onset of myoclomis (presence of forelimb clonic activity) induced by metrazol was determined by observing each mouse for a period of 30 minutes. […] Table 6: Antimetrazol Activity of Neuroactive Steroids in Mice
The anticonvulsant tests are similar to that described above. […] The number of animals with tonic and/or clonic convulsions was recorded. In the maximal electroshock test, 50 mA of current at 60 Hz was delivered through corneal electrodes for 200 msec to induce tonic seizure. The ability of compounds to abolish the tonic component was defined as the endpoint. General CNS depression potential was determined by a rotorod test 10 minutes after the injection of compounds where the number of mice staying on a rotating (6 rpm) rod for 1 minute in one of the three trials was determined. […] Table 7. Anticonvulsant Activity of Exemplified Neuroactive Steroids and those of Selected Clinically Useful Anticonvulsants in Mice

[3] = system: N.I.H. Swiss-Webster mice; assay: Elevated plus-maze; assay type: in vivo; conditions: Mus musculus, ip, read-out: % Control
Text: The theoretical basis for the elevated plus-maze test is similar to that of the light/dark transition test. […] The apparatus consists of two open-arms and two enclosed-arms. The elevated plus-maze test allows for two measures of anxiety, the number of entries into the open-arms and the time spent on the open-arms, both expressed as a percentage of the total number of entries and time spent in/on both the open-arms and enclosed-arms.
Male N.LH. Swiss-Webster mice (Harlan, Indianapolis, IN) weighing 15-20 g were housed four per cage in polyethylene cages with sawdust bedding. The colony mom was environmentally controlled (22°C) with a 12^- hr light/dark cycle (0600-1800 hr). Food and water were available ad libitum, except during testing. The experiments were run from 0700-1500 hr and groups were counterbalance for time of day effects. Mice were only administered drug or vehicle once.
The apparatus included two open arms perpendicular to two enclosed arms elevated 50 cm from the floor. Each arm was 50 cm long and the walls of the enclosed arms were 40 cm tall. The maze was made completely of black plexiglass. Incandescent 200 W light bulbs were above each of the open arms to produce a strong contrast between the open arms and the enclosed arms.
Ten minutes after an injection, the N.I.H. Swiss-Webster mice were placed in the center of the plus-maze facing an open arm. During the 5 min test period, the number of entries onto the open arms and the enclosed arms, and the time spent in the open arms and enclosed arms were measured. All four paws had to be within an arm for the dependent variable to be measured. Therefore, the time spent in the center of the maze is not counted, so the total time spent in the open arms and the enclosed arms may not equal 5 min.

[4] = system: Bovine Uteral Progesterone Receptors; assay: Inhibition of 3H-progesterone binding, uterus cytosol; conditions: competitor 10^-6M; 3H-progesterone 0.15 nM
Description: The data presented were obtained by performing assays in accordance with the procedures described in et al. 1988 previously to determine the effect of progesterone metabolites and their derivatives and the progestin R5020 on the binding of [^3H]R5020 to the progesterone receptor in rat uterus (Gee et al. 1988).
^3H-progesterone (0.15 nM) was incubated with the rat uterus cytosol in the presence of the test compounds. The specific binding were determined after incubation and compared to the control incubation without the compounds. The data are expressed as percent inhibition of binding.
In Table 3, rats were adrenalectomized 3 days prior to sacrifice. To isolate the mineralocorticoid receptor, brain cytosol fractions were prepared as describe in Gee, et al. 1988. The drugs were incubated with 3 nM of ^3H-aldosterone (the specific ligand for the mineralocorticoid receptor) in the presence of the selective type II agonist RU28362 (0.5 µM) which blocks ^3H-aldosterone binding to the type II (glucocorticoid) receptors. Table 2. Inhibition of 3H-Progesterone Binding to the Bovine Uteral Progesterone Receptors

CC(=O)c1ccc(C#C[C@@]2(O)CC[C@@]3(C)[C@H](CC[C@@H]4[C@@H]3CC[C@]3(C)[C@@H](C(C)=O)CC[C@@H]43)C2)s1 [3β-(5-Acetylthien-2-yl)ethynyl-3α-hydroxy-5β-pregnan-20-one]
IC50 [1]: 52 nM | IMAX [1]: 89% | responders at 10 mg/kg [2]: 25% | response vs control in vivo at 10 mg/kg [3]: 83%

C#C[C@@]1(O)CC[C@@]2(C)[C@H](CC[C@@H]3[C@@H]2CC[C@]2(C)[C@@H](C(=O)Cn4ccnc4)CC[C@@H]32)C1 [3β-ethynyl-3α-hydroxy-21-(1'-imidazolyl)-5β-pregnan-20-one]
IC50 [1]: 80 nM | IMAX [1]: 103% | responders at 10 mg/kg [2]: 50% | response vs control in vivo at 10 mg/kg [3]: 179%

C#C[C@@]1(O)CC[C@@]2(C)[C@H](CC[C@@H]3[C@@H]2CC[C@]2(C)[C@@H](C(=O)Cn4cccn4)CC[C@@H]32)C1 [3β-ethynyl-3α-hydroxy-21-(1'-pyrazolyl)-5β-pregnan-20-one]
IC50 [1]: 106 nM | IMAX [1]: 99% | responders at 10 mg/kg [2]: 62.5% | response vs control in vivo at 10 mg/kg [3]: 180%

CCC(=O)[C@@]1(C)CC[C@H]2[C@@H]3CCC4=CC(=O)CCC4=C3CC[C@@]21C [Example R5020, promegesterone]
% of Inhibition [4]: 100%

C[C@@]1(O)CC[C@@]2(C)[C@@H](CC[C@@H]3[C@@H]2CC[C@]2(C)[C@@H](C(=O)CSS(=O)(=O)[O-])CC[C@@H]32)C1.[Na+] [sodium S-(3α-hydroxy-3β-methyl-5α-pregnan-20-on-21-yl) thiosulfate]
IC50 [1]: 151 nM | IMAX [1]: 101% | responders at 10 mg/kg [2]: 62.5% | response vs control in vivo at 10 mg/kg [3]: 125%

C[C@]12CC[C@@H](O)C[C@H]1CC[C@@H]1[C@@H]2CC[C@]2(C)[C@@H](C(=O)CSS(=O)(=O)[O-])CC[C@@H]12.[Na+] [sodium S-(3α-hydroxy-5β-pregnan-20-on-21-yl) thiosulfate]
IC50 [1]: 268 nM | IMAX [1]: 88% | responders at 10 mg/kg [2]: 37.5% | response vs control in vivo at 10 mg/kg [3]: 143%

C[C@]12CC[C@](O)(C#CCCO)C[C@H]1CC[C@@H]1[C@@H]2CC[C@]2(C)[C@@H](C(=O)CSS(=O)(=O)O)CC[C@@H]12 [sodium S-[3α-hydroxy-3β-(4'-hydroxybutynyl)-5β-pregnan-20-on-21-yl] thiosulfate]
IC50 [1]: 107 nM | IMAX [1]: 97% | responders at 40 mg/kg ([2]; PO, 40 mg/kg, water): 33.3% | response vs control in vivo at 10 mg/kg [3]: 135%
